Results taken from US6831075B2, “Heterocyclic substituted pyrazolones” (Cephalon, Inc., priority 1999, dated 2004).

Biological target: T1, recombinant human baculoviral VEGFR2 cyctoplasmic domain (Homo sapiens, UniProt P35968)
T1 construct: recombinant human baculoviral VEGFR2 cyctoplasmic domain; host or cells: baculovirus expression system
Assay: VEGFR2 kinase inhibition assay (ELISA-based, time-resolved fluorescence)
Format: biochemical
Conditions: 1 uM compound; 30 μM ATP; read-out: VEGFR-2 kinase % inhibition @ 1 uM
Procedure: Inhibition of Vascular Endothelial Growth Factor Receptor-2 Kinase Activity
Assay were performed as described for trkA kinase below. The 96-well microtiter plate (FluoroNUNC Maxisorp) was coated with 40 μg/ml recombinant human phospholipase C-γ1/glutathione S-transferase fusion protein. Inhibition studies were performed in 100 μl assay mixtures containing 50 mM HEPES, pH 7.4, 30 μM ATP, 10 mM MnCl2, 0.1% BSA, 2% DMSO, and 1 μM of test compound. The reaction was initiated by adding prephosphorylated recombinant human baculoviral VEGFR2 cyctoplasmic domain. The reaction was allowed to proceed for 15 minutes at 37° C. The detection antibody, eurpium-labeled anti-phosphotyrosine antibody (Wallac #CR04-100), was added at 1:5000 dilution in block buffer (3% BSA in TBST).

T1 sequence (P35968 786-1356 limits assumed): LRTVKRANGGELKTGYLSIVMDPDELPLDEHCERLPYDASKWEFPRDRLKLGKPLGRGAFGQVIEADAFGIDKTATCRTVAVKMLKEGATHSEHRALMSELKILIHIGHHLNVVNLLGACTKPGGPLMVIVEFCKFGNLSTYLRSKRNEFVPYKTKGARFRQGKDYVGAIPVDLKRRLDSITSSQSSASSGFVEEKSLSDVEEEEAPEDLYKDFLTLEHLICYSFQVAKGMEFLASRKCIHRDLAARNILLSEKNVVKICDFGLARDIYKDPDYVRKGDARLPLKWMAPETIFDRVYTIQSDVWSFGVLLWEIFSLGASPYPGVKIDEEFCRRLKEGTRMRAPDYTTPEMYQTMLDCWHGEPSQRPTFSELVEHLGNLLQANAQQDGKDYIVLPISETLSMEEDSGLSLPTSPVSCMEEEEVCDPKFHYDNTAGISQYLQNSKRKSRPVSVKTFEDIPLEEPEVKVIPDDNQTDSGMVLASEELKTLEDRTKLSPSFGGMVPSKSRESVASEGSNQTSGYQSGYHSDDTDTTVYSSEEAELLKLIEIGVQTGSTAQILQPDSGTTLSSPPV

| Structure (SMILES) | inhibition at 1 µM [%] |
| --- | --- |
| Cc1cc(C)c(CC2C(=O)NN=C2c2c[nH]c3ccccc23)[nH]1 (centres unmarked) [Compound 77, 4-[(3,5-dimethylpyrrol-2-yl)methyl]-3-indol-3-yl-2-pyrazolin-5-one] | 21 |
| Cc1cc(C)c(C=C2C(=O)NN=C2c2c[nH]c3ccccc23)[nH]1 [Compound 76, 4-[(3,5-dimethylpyrrol-2-yl)methylene]-3-indol-3-yl-2-pyrazolin-5-one] | 39 |
